Counter-ions that a name gives are not always drawn.
Legend:
[1] = Aqueous solubility of dicamba acid and dicamba salts; conditions: for Comments (crystal formation) / solubility 20° C. a.e. / solubility 0° C. a.e. / solubility 0° C. a.i. / solubility 20° C. a.i.: Table 10a; for Comments (crystal formation): dicamba salt solutions; for solubility 20° C. a.e. / solubility 0° C. a.e. / solubility 0° C. a.i. / solubility 20° C. a.i.: dicamba salt; for solubility 20° C. a.e. / solubility 20° C. a.i.: equilibrated 5 to 7 days at 20° C.; for solubility 20° C. a.e.: 0.45 micron filter, HPLC; for solubility 20° C. a.e. / solubility 0° C. a.e.: acid equivalent; for aqueous solubility wt % a.i. @20° C.: dicamba salts; for solubility 0° C. a.e. / solubility 0° C. a.i.: equilibrated 5 to 7 days at 0° C.; for solubility 0° C. a.i. / solubility 20° C. a.i.: active ingredient
Description: The solution was then passed through a 0.45 micron filter and assayed by HPLC for soluble dicamba.

[2] = Distillation volatility: dicamba in distillate by HPLC/MS; type: physicochemical; conditions: for ppm Dicamba in distillate: Table 4h summary, 5% a.e. salt solution
Description: The pH was measured on a standard Orion Model 320 pH meter of each neat solution.
Simple distillation using a short path still was used to collect the water distillate containing the dicamba in the vapor phase of the salt solutions. A 50 mL distillation flask was used. The distillation receiver was a “cow” type with four 2 mL graduated sections. The solutions were heated at the 30% setting of the GlassCol heating unit and the boiling point of each distillation was noted. The first 2 ml of distillate was collected, and the receiver rotated to avoid collection of any further distillate in that section as the distillation flask cooled. The 2 mL sample was quantitatively transferred by pipette to HPLC vials for later analysis. Between each distillation the distillation apparatus was washed with 10 volumes of tap water, 10 volumes of distilled water, rinsed with acetone, and dried in a 60° C. oven. Each distillation was run in triplicate.
The distillate was collected and analyzed for dicamba concentration using HPLC/Mass Spectroscopy (MS). The HPLC column was an Agilent Zorbax Eclipse XDB-C8, 4.6×150 mm, 5u, PN 993967-90. Mobile phase A was 0.1% formic acid in D.I. water. Mobile phase B was 0.1% formic acid in acetonitrile. A flow rate of 1.2 mL/min was used and an injection volume of 5, 10, 15 or 25 ul was used depending on the dicamba level in the sample. The following gradient was used: […]
The MS parameters were as follows: Type SIR; ES-ion mode; 0.05 second inter channel delay; 0.05 second interscan time; 0.5 span (Da); 10 minutes elapsed time; and 6-6000 ppb calibration range. […] Channel 2 mass was 177 (Da); Dwell was 0.25(s); Cone(V)=tune and; 0.05(s) delay.

[3] = Tank mix compatibility of dicamba salts with potassium glyphosate; type: physicochemical
Description: The weight of the dicamba solution that caused precipitation was noted. The results are reported in Table 12a below where “salt” refers to the dicamba salt and “g to crystals” refers to the total amount of grams of dicamba a.e. that were required to induce crystallization or precipitation of crystals.

[4] = type: physicochemical; conditions: 5 mL sample, air pulled through tube over PUF approximately 1 day; wt % a.e.: salts 35.8, BANVEL 40, acid 99
Description: In a further set of experiments, measurements of dicamba concentration in the gas phase (air) above 38.5 wt % a.e. solutions of various dicamba salts was measured. 5 mL of each sample of dicamba was placed into a 50 mL plastic centrifuge tube with four holes approximately ⅛ in diameter drilled into the tube at the 10 mL line. A 22 mm×30 mm PUF (SKC ct. #226-124) was placed into a glass tube of app. 20 mm diameter with parafilm wrapped around the outside to obtain a snug fit into the top of the centrifuge tube. A hose was connected to the other end of the glass tube leading to a vacuum line. The air flow was regulated to app. 2 L/min using a flow controller (about 0.4 L air/min-mL sample). Air was pulled through the tube at […] for approximately 1 day. Note that the air conditions of flow rate, temperature, pressure and composition (e.g., relative humidity) are not narrowly critical as long as the various samples are analyzed under similar conditions. For instance, air at from about 5° C. to about 40° C., from about 0.5 to about 1.5 bar pressure, from about 0% to about 95% relative humidity, and at a flow rate of from about 0.1 to 10 L/min-mL sample could be suitably used for volatility analysis. The PUF was removed from the glass tube, extracted with 20 mL methanol and the resulting solution analyzed for dicamba concentration by LC-MS. The results are shown in Table 4i below where “wt % a.e.” refers to the dicamba concentration, “μg/mL” refers to the dicamba concentration in the distillate, “μg dicamba” refers to the total dicamba extracted from the PUF by 20 mL methanol, and “ng/L air” and “moles/L air” refer to the dicamba concentration in the gas phase above the solution.

With `NCCOCCO` [DGA] the “Comments (crystal formation)” value [1] was “Crystals formed slowly”, the “solubility 20° C. a.e.” value [1] was less than 50 wt % and the “Mean Dicamba in Distillate” value ([2]; 1% a.e. dicamba, solution pH 4.23) was 0.46 ppm. The “Mean Dicamba in Distillate” value ([2]; 1% a.e. dicamba, solution pH 6.48) was 0.18 ppm, the “Mean Dicamba in Distillate” value ([2]; 1% a.e. dicamba, solution pH 8.24) was 0.13 ppm and the “Mean Dicamba in Distillate” value ([2]; 1% a.e. dicamba, solution pH 8.88) was 0.12 ppm. The “Mean Dicamba in Distillate” value ([2]; 2% a.e. dicamba, solution pH 4.17) was 1.10 ppm, the “Mean Dicamba in Distillate” value ([2]; 2% a.e. dicamba, solution pH 6.44) was 0.31 ppm and the “Mean Dicamba in Distillate” value ([2]; 2% a.e. dicamba, solution pH 8.22) was 0.28 ppm. For the same compound, the “Mean Dicamba in Distillate” value ([2]; 2% a.e. dicamba, solution pH 8.92) was 0.19 ppm, the “Mean Dicamba in Distillate” value ([2]; 5% a.e. dicamba, solution pH 4.57) was 2.11 ppm and the “Mean Dicamba in Distillate” value ([2]; 5% a.e. dicamba, solution pH 6.35) was 0.75 ppm. The “Mean Dicamba in Distillate” value ([2]; 5% a.e. dicamba, solution pH 8.26) was 0.58 ppm, the “Mean Dicamba in Distillate” value ([2]; 5% a.e. dicamba, solution pH 9.03) was 0.32 ppm and the “ppm Dicamba in distillate” value ([2]; pH 6.35) was 0.8 ppm. For the same compound, the “ppm Dicamba in distillate” value ([2]; pH 8.26) was 0.6 ppm, the Comment ([3]; dicamba salt solution added to […] Roundup POWERMAX solution) was “CLARITY-clear solution with no” and the g to crystals ([3]; grams dicamba a.e. (35.8% a.e. salt solution) added to […] Roundup POWERMAX solution to induce crystallization or precipitation) was greater than 17 g.
For `CNC` [DMA], the “Mean Dicamba in Distillate” value ([2]; 1% a.e. dicamba, solution pH 3.25) was 4.50 ppm, the “Mean Dicamba in Distillate” value ([2]; 1% a.e. dicamba, solution pH 4.36) was 0.57 ppm and the “Mean Dicamba in Distillate” value ([2]; 1% a.e. dicamba, solution pH 6.11) was 0.30 ppm. The “Mean Dicamba in Distillate” value ([2]; 1% a.e. dicamba, solution pH 8.53) was 0.73 ppm, the “Mean Dicamba in Distillate” value ([2]; 1% a.e. dicamba, solution pH 10.12) was 1.32 ppm and the “Mean Dicamba in Distillate” value ([2]; 2% a.e. dicamba, solution pH 3.20) was 9.19 ppm. The “Mean Dicamba in Distillate” value ([2]; 2% a.e. dicamba, solution pH 4.25) was 1.08 ppm, the “Mean Dicamba in Distillate” value ([2]; 2% a.e. dicamba, solution pH 5.97) was 0.83 ppm and the “Mean Dicamba in Distillate” value ([2]; 2% a.e. dicamba, solution pH 8.66) was 1.98 ppm. For the same compound, the “Mean Dicamba in Distillate” value ([2]; 2% a.e. dicamba, solution pH 10.24) was 4.88 ppm, the “Mean Dicamba in Distillate” value ([2]; 5% a.e. dicamba, solution pH 3.18) was 20.10 ppm and the “Mean Dicamba in Distillate” value ([2]; 5% a.e. dicamba, solution pH 4.22) was 2.67 ppm. For the same compound, the “Mean Dicamba in Distillate” value ([2]; 5% a.e. dicamba, solution pH 5.58) was 2.06 ppm, the “Mean Dicamba in Distillate” value ([2]; 5% a.e. dicamba, solution pH 8.69) was 8.43 ppm and the “Mean Dicamba in Distillate” value ([2]; 5% a.e. dicamba, solution pH 10.17) was 12.34 ppm. The “ppm Dicamba in distillate” value ([2]; pH 5.58) was 2.1 ppm and the “ppm Dicamba in distillate” value ([2]; pH 8.69) was 8.4 ppm.
In the case of `COc1c(Cl)ccc(Cl)c1C(=O)O.NCCOCCO` [Dicamba DGA salt, reference compound], the “aqueous solubility Approximate g a.e./L @20° C.” value [1] is reported as 700 g a.e./L, the “aqueous solubility wt % a.e. @20° C.” value [1] is reported as 56.5 wt % a.e and the “aqueous solubility wt % a.e. @20° C.” value ([1]; Table 10b, second experiment, dicamba acid and salts) is reported as 56.5 wt % a.e. For the same compound, the “aqueous solubility wt % a.i. @20° C.” value ([1]; Table 10b, second experiment) was 83.4 wt % a.i and the “crystal formation from concentrated salt solution” value ([1]; solubility experiment, Example 10) was “several weeks”.
For `COc1c(Cl)ccc(Cl)c1C(=O)O` [Dicamba acid, 3,6-dichloro-2-methoxybenzoic acid], the “aqueous solubility Approximate g a.e./L @20° C.” value ([1]; listed as acid) was 4.5 g a.e./L, the “aqueous solubility wt % a.e. @20° C.” value ([1]; listed as acid) was 0.4 wt % a.e and the “aqueous solubility wt % a.e. @20° C.” value ([1]; Table 10b, second experiment, dicamba acid and salts, listed as acid) was 0.4 wt % a.e. The “dicamba” value [4] was 15.3 µg/mL, the “dicamba concentration in gas phase, moles/L air” value [4] was 1.92 × 10^−10 moles/L air and the “dicamba concentration in gas phase, ng/L air” value [4] was 42.4 ng/L air. The μg dicamba [4] was 305.4 µg.
For `COc1c(Cl)ccc(Cl)c1C(=O)O` [Dicamba potassium salt], the “aqueous solubility Approximate g a.e./L @20° C.” value ([1]; listed as potassium dicamba) was 720 g a.e./L, the “aqueous solubility wt % a.e. @20° C.” value ([1]; listed as potassium dicamba) was 54.6 wt % a.e and the “Comments (crystal formation)” value ([1]; listed as K) was “Crystals form on”. The “solubility 0° C. a.e.” value ([1]; listed as K) was 52.7 wt %, the “solubility 0° C. a.i.” value ([1]; listed as K) was 61.8 wt % and the “solubility 20° C. a.e.” value ([1]; listed as K) was 54.6 wt %. The “solubility 20° C. a.i.” value ([1]; listed as K) was 64 wt %, the “aqueous solubility wt % a.e. @20° C.” value ([1]; Table 10b, second experiment, dicamba acid and salts, listed as potassium salt) was 54.6 wt % a.e and the “aqueous solubility wt % a.i. @20° C.” value ([1]; Table 10b, second experiment, listed as potassium salt) was 64 wt % a.i. For the same compound, the “ppm Dicamba in distillate” value ([2]; pH 7.06) was 0.6 ppm.
In the case of `NCCCCCCN` [HMDA], the “Comments (crystal formation)” value [1] is reported as “Pasty solid”, the “solubility 0° C. a.e.” value [1] is reported as 11.2 wt % and the “solubility 0° C. a.i.” value [1] is reported as 14.1 wt %. For the same compound, the “solubility 20° C. a.e.” value [1] was 14.1 wt % and the “solubility 20° C. a.i.” value [1] was 17.8 wt %.
For `CC(C)N` [IPA], the “Mean Dicamba in Distillate” value ([2]; 1% a.e. dicamba, solution pH 3.41) was 1.42 ppm, the “Mean Dicamba in Distillate” value ([2]; 1% a.e. dicamba, solution pH 4.40) was 0.42 ppm and the “Mean Dicamba in Distillate” value ([2]; 1% a.e. dicamba, solution pH 5.13) was 0.37 ppm. The “Mean Dicamba in Distillate” value ([2]; 1% a.e. dicamba, solution pH 8.10) was 0.72 ppm, the “Mean Dicamba in Distillate” value ([2]; 1% a.e. dicamba, solution pH 9.13) was 1.22 ppm and the “Mean Dicamba in Distillate” value ([2]; 2% a.e. dicamba, solution pH 3.37) was 3.65 ppm. For the same compound, the “Mean Dicamba in Distillate” value ([2]; 2% a.e. dicamba, solution pH 4.36) was 1.42 ppm, the “Mean Dicamba in Distillate” value ([2]; 2% a.e. dicamba, solution pH 5.10) was 0.94 ppm and the “Mean Dicamba in Distillate” value ([2]; 2% a.e. dicamba, solution pH 8.13) was 0.75 ppm. The “Mean Dicamba in Distillate” value ([2]; 2% a.e. dicamba, solution pH 9.20) was 3.43 ppm, the “Mean Dicamba in Distillate” value ([2]; 5% a.e. dicamba, solution pH 3.44) was 5.85 ppm and the “Mean Dicamba in Distillate” value ([2]; 5% a.e. dicamba, solution pH 4.33) was 3.14 ppm. For the same compound, the “Mean Dicamba in Distillate” value ([2]; 5% a.e. dicamba, solution pH 4.94) was 3.77 ppm, the “Mean Dicamba in Distillate” value ([2]; 5% a.e. dicamba, solution pH 8.24) was 2.47 ppm and the “Mean Dicamba in Distillate” value ([2]; 5% a.e. dicamba, solution pH 9.28) was 12.57 ppm. The “ppm Dicamba in distillate” value ([2]; pH 8.24) was 2.5 ppm.
